The results in this text go back to ChEMBL document CHEMBL5352401, “Novel cudraisoflavone J derivatives as potent neuroprotective agents for the treatment of Parkinson's disease via the activation of Nrf2/HO-1 signaling” (Eur J Med Chem, 2022).

Structures are written as SMILES. Calls of active or inactive are those of the source. The calls are words filed in the database; no cut-off is given here.

For test [1], the system named is PC-12. Kind of test: Neuroprotective activity in rat PC-12 cells assessed as upregulation of HO-1 expression measured at 10 uM after 3 to 6 hrs by immunoblotting analysis. Format: functional, cell-based. As to conditions: time 3-6 hrs. On the technique in general: Immunoblotting shows a protein as a band on a membrane.
Test [2] concerns the target T1, Nuclear factor erythroid 2-related factor 2 (Rattus norvegicus) (UniProt O54968).
T1 sequence (whole entry): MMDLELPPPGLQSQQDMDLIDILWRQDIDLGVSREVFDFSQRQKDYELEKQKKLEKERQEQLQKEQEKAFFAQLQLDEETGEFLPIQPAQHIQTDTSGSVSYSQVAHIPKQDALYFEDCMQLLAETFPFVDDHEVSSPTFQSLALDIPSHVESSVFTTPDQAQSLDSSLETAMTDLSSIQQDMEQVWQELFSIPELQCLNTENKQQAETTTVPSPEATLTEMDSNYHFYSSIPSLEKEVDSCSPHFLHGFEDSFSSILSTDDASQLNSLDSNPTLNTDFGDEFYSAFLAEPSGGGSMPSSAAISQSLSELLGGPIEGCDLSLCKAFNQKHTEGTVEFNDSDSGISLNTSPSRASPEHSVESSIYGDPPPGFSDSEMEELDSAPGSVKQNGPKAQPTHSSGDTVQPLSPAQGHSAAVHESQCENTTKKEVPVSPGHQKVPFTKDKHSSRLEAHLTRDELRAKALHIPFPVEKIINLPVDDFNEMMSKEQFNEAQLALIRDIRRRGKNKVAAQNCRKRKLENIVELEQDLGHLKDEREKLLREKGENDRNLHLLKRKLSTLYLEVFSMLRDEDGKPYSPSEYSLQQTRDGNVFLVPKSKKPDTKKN
Nature of the test: Induction of Nrf2 nuclear translocation in rat PC12 cells assessed as increase in phosphorylation of ERK2 at 10 uM for 2 to 3 hrs by Western blotting analysis. Format: cell-based. The note with it: PC-12, filed as activator, time 2-3 hrs.

Test [3] relates to PC-12. Kind of test: Reversal of upregulation of HO-1 in rat PC-12 cells pretreated with U0126 for 2 hrs followed by compound addition at 10 uM for 2 to 3 hrs by Western blotting analysis. Format: functional, cell-based. As to conditions: time 2-3 hrs.
The subject of test [4] is PC-12. Nature of the test: Neuroprotective activity against 6-OHDA-induced cytotoxicity in rat PC-12 cells at 30 uM for 4 hrs followed by exposure to 6-OHDA measured after 24 hrs by MTT assay. Format: functional, cell-based. As to conditions: time 28.0 hrs.
For test [5], the target named is T1, Nuclear factor erythroid 2-related factor 2 (Rattus norvegicus). Kind of test: Induction of Nrf2 nuclear translocation in rat PC12 cells assessed as increase in phosphorylation of JNK at 10 uM for 2 to 3 hrs by Western blotting analysis. Format: cell-based. The note with it: PC-12, filed as activator, time 2-3 hrs.
Test [6] has as its system PC-12. Kind of test: Antiinflammatory activity in rotenone induced cytotoxicity in rat PC-12 cells assessed as reduction of ROS production pretreated at 10 to 30 uM for 4 hrs followed by rotenone addition treated for 6 hrs measured after 1 hr of H2-DCFDA addition by measuring fluorescence. As to conditions: dose 10-30 µM, time 11.0 hrs. Format: functional, cell-based.
The target in test [7] is T1, Nuclear factor erythroid 2-related factor 2 (Rattus norvegicus). Nature of the test: Induction of Nrf2 nuclear translocation in rat PC12 cells assessed as increase in phosphorylation of JNK pretreated with SP600125 for 2 hrs followed by compound addition at 10 uM for 2 to 3 hrs by Western blotting analysis. Format: cell-based. The note with it: PC-12, time 2-3 hrs.
For test [8], the system named is PC-12. Nature of the test: Cytotoxicity in rat PC-12 cells assessed as cell viability measured at 30 uM for 24 hrs by MTT assay. Format: functional, cell-based. (Tetrazolium assays rely on reduction of a dye to a coloured formazan, in cell work by metabolically active cells.)
Test [9] deals with PC-12. Kind of test: Antiinflammatory activity in 6-OHDA-induced cytotoxicity in rat PC-12 cells assessed as reduction of ROS production pretreated at 10 to 30 uM for 4 hrs followed by 6-OHDA addition treated for 6 hrs measured after 1 hr of H2-DCFDA addition by measuring fluorescence. Format: functional, cell-based. As to conditions: dose 10-30 µM, time 11.0 hrs.
For test [10], the system named is PC-12. Nature of the test: Cytotoxicity in rat PC-12 cells assessed as cell viability incubated for 24 hrs by MTT assay. Format: functional, cell-based. As to conditions: PC-12, 24 h.
For test [11], the target named is T1, Nuclear factor erythroid 2-related factor 2 (Rattus norvegicus). Kind of test: Inhibition of Nrf2 nuclear translocation in rat PC12 cells assessed as increase in phosphorylation of p38 MAPK pretreated with SB203580 for 2 hrs followed by compound addition at 10 uM for 2 to 3 hrs by Western blotting analysis. Format: cell-based. As to conditions: PC-12, time 2-3 hrs.

Test [12] concerns PC-12. Nature of the test: Neuroprotective activity in rat PC-12 cells assessed as upregulation of HO-1 expression measured for 6 hrs by immunoblotting analysis. Format: functional, cell-based. As to conditions: dose 1-30 µM.
Test [13] deals with T1, Nuclear factor erythroid 2-related factor 2 (Rattus norvegicus). Nature of the test: Induction of Nrf2 nuclear translocation in rat PC12 cells assessed as increase in phosphorylation of ERK1 pretreated with U0126 for 2 hrs followed by compound addition at 10 uM for 2 to 3 hrs by Western blotting analysis. Format: cell-based. As to conditions: PC-12, time 2-3 hrs.
Test [14] has the same target. Kind of test: Induction of Nrf2 nuclear translocation in rat PC12 cells assessed as increase in phosphorylation of ERK1 at 10 uM for 2 to 3 hrs by Western blotting analysis. Format: cell-based. The note with it: PC-12, filed as activator, time 2-3 hrs.
The test system of test [15] is PC-12. Kind of test: Antiinflammatory activity in 6-OHDA-induced cytotoxicity in rat PC-12 cells assessed as reduction of fluorescence signal pretreated at 10 to 30 uM for 4 hrs followed by 6-OHDA addition treated for 6 hrs measured after 1 hr of H2-DCFDA addition by spectrophotometric analysis. As to conditions: dose 10-30 µM, time 11.0 hrs. Format: functional, cell-based.

Test [16] relates to PC-12. Kind of test: Reversal of upregulation of HO-1 in rat PC-12 cells pretreated with LY294002 for 2 hrs followed by compound addition at 10 uM for 2 to 3 hrs by Western blotting analysis. Format: functional, cell-based. As to conditions: time 2-3 hrs.
The subject of test [17] is PC-12. Nature of the test: Upregulation of HO-1 expression in si-RNA mediated Nrf2 knock down rat PC-12 cells measured by immunoblotting analysis. Format: functional, cell-based.
Test [18] addresses T1, Nuclear factor erythroid 2-related factor 2 (Rattus norvegicus). Nature of the test: Induction of Nrf2 nuclear translocation in rat PC12 cells assessed as increase in phosphorylation of Akt pretreated with LY294002 for 2 hrs followed by compound addition at 10 uM for 2 to 3 hrs by Western blotting analysis. Format: cell-based. The note with it: PC-12, time 2-3 hrs.
The target of test [19] is KEAP1/NRF2 (Rattus norvegicus) (UniProt O54968+P57790). Nature of the test: Inhibition of Nrf2-Keap1 protein-protein interaction in rat PC-12 cells by Western blotting analysis. Format: cell-based.
The target in test [20] is T1, Nuclear factor erythroid 2-related factor 2 (Rattus norvegicus). Kind of test: Induction of Nrf2 nuclear translocation in rat PC12 cells assessed as increase in phosphorylation of ERK2 pretreated with U0126 for 2 hrs followed by compound addition at 10 uM for 2 to 3 hrs by Western blotting analysis. The note with it: PC-12, time 2-3 hrs. Format: cell-based.
Test [21] has the same target. Nature of the test: Induction of Nrf2 nuclear translocation in rat PC12 cells at 10 uM for 3 hrs by Western blotting analysis. Format: cell-based. As to conditions: PC-12, filed as activator.
Test [22] relates to PC-12. Kind of test: Neuroprotective activity in rat PC-12 cells assessed as fold increase in upregulation of HO-1 expression measured at 30 uM for 6 hrs by immunoblotting analysis. Format: functional.
Test [23] relates to PC-12. Kind of test: Antiinflammatory activity in rotenone induced cytotoxicity in rat PC-12 cells assessed as reduction of fluorescence signal pretreated at 10 to 30 uM for 4 hrs followed by rotenone addition treated for 6 hrs measured after 1 hr of H2-DCFDA addition by spectrophotometric analysis. Format: functional, cell-based. The note with it: dose 10-30 µM, time 11.0 hrs.

In test [24] the test system is PC-12. Kind of test: Reversal of upregulation of HO-1 in rat PC-12 cells pretreated with SP600125 for 2 hrs followed by compound addition at 10 uM for 2 to 3 hrs by Western blotting analysis. Format: functional, cell-based. The note with it: time 2-3 hrs.
Test [25] addresses T1, Nuclear factor erythroid 2-related factor 2 (Rattus norvegicus). Kind of test: Induction of Nrf2 nuclear translocation in rat PC12 cells assessed as increase in phosphorylation of AKT at 10 uM for 2 to 3 hrs by Western blotting analysis. Format: cell-based. The note with it: PC-12, filed as activator, time 2-3 hrs.
Test [26] is described as follows: Neurotoxicity in rotenone induced at rat PC-12 cells assessed as cell viability pretreated with compound for 4 hrs followed by rotenone addition measured after 24 hrs by MTT assay. Format: toxicity, cell-based.
The test system of test [27] is PC-12. Nature of the test: Cytotoxicity in 6-OHDA induced rat PC-12 cells assessed as cell viability pretreated with ZnPP for 30 mins followed by compound addition at 10 uM for 4 hrs and measured after 24 hrs of […] addition by MTT assay. The note with it: time 28.0 hrs. Format: functional, cell-based.
Test [28] concerns PC-12. Nature of the test: Neuroprotective activity against 6-OHDA-induced cytotoxicity in rat PC-12 cells for 4 hrs followed by exposure to 6-OHDA measured after 24 hrs by MTT assay. Format: functional, cell-based. As to conditions: dose 0.1-30 µM, time 28.0 hrs.
Test [29] concerns the target T1, Nuclear factor erythroid 2-related factor 2 (Rattus norvegicus). Kind of test: Induction of Nrf2 nuclear translocation in rat PC12 cells assessed as change in phosphorylation of p38 MAPK level at 10 uM for 2 to 3 hrs by Western blotting analysis. As to conditions: PC-12, time 2-3 hrs. Format: cell-based.
Test [30] deals with Brain. Kind of test: Antioxidant activity in Fe2+/L-ascorbic acid induced Sprague-Dawley rat brain homogenate assessed as inhibition of lipid peroxide production measured at 100 uM after 60 mins by microplate reader method relative to control. Format: functional, tissue-based.
Test [31] can be described thus: Neurotoxicity in rotenone induced at rat PC-12 cells assessed as cell viability at 30 uM pretreated for 4 hrs followed by rotenone addition measured after 24 hrs by MTT assay (reference value: 53.4 +/- 2.6%). Format: toxicity, cell-based. As to conditions: time 28 hrs, read-out: Activity.
Test [32] deals with PC-12. Kind of test: Cytotoxicity in rat PC-12 cells assessed as cell viability measured at 10 to 30 uM for 24 hrs by MTT assay. Format: functional, cell-based. The note with it: dose 10-30 µM.
In test [33] the test system is PC-12. Kind of test: Neuroprotective activity against 6-OHDA-induced cytotoxicity in rat PC-12 cells at 10 to 30 uM for 4 hrs followed by exposure to 6-OHDA measured after 24 hrs by MTT assay. Format: functional, cell-based. As to conditions: dose 10-30 µM, time 28.0 hrs.
Test [34] relates to PC-12. Kind of test: Cytotoxicity in rat PC-12 cells assessed as cell viability measured at 10 uM for 24 hrs by MTT assay. Format: functional, cell-based.
Test [35] concerns PC-12. Kind of test: Neuroprotective activity against 6-OHDA-induced cytotoxicity in rat PC-12 cells at 10 uM for 4 hrs followed by exposure to 6-OHDA measured after 24 hrs by MTT assay. The note with it: time 28.0 hrs. Format: functional, cell-based.

Regarding `COc1ccc(-c2coc3cc(O)c4c(c3c2=O)OC(C)(C)C=C4)cc1`, the result in test [1], in test [2], in test [3], in [4], in test [5] and in test [6] was Active. Further, the result in [9], in test [14], in [15], in test [16], in [21] and in [23] was Active. The result in test [24], in test [25] and in [27] was Active. The outcome in test [7], in test [8], in test [13], in [17], in test [18] and in [20] was inactive. In addition, the result in test [29] was inactive. Besides, the IC50 in [10] amounted to 3.9 µM; in [26] it was 4.8 µM. The inhibition entry in test [11] and in test [19] was “Active” each time. In addition, the Activity result in test [12] and in test [28] was “Dose-Dependent Effect” in each case. Besides, the “fold change (FC)” value in [22] is given as 2. The inhibition in [30] came out at 28.8%. Further, the viability at 30 µM in [31] is ≤ 81.8%.

Turning to `CC1(C)Oc2c(c(O)cc3occ(-c4ccc(F)cc4F)c(=O)c23)CC1O` (stereo not given), the result in [1], in test [2], in test [3], in test [5], in test [6] and in test [9] was Active. The result in test [32], in [14], in test [15], in test [33], in test [16] and in test [21] was Active. Further, the result in test [23], in test [24], in test [25] and in [27] was Active. The result in test [7], in test [13], in test [17], in test [18], in test [20] and in [29] was inactive. In addition, the IC50 in [10] came to 4.2 µM; in [26] it was 4.7 µM. Besides, the inhibition result in [11] and in test [19] was “Active” in each case. The Activity entry in [12] and in test [28] was “Dose-Dependent Effect” in each case. Besides, the “fold change (FC)” value in [22] stood at 1.5. In test [30], the inhibition was 50.5%. Also, in [31], the viability at 30 µM is ≤ 79.9%.

As for `CC1(C)Oc2c(c(O)cc3occ(-c4ccco4)c(=O)c23)CC1O` (stereo not given), the result in [4] was inactive. The outcome in [34] and in test [35] was Active.

As usually defined, the IC50 is the concentration that inhibits the measured activity by half. What is called inhibition is the relative decrease from the control value, in per cent.
